Results on 2 compounds are retold here after publication PMC6571673, “Cytostatic and Cytotoxic Natural Products against Cancer Cell Models” (Molecules, 2019).

Series [1] deals with SUP-B15. The experiment in a line: CTG viability assay (CellTiter-Glo, 72 h). Format: cell-based, human. The protocol: (§1) All human cell lines were incubated at 37 °C in a 5% CO2 atmosphere and maintained under sterile conditions. Cells were tested for Mycoplasma (Lonza, Alpharetta, GA, USA) using the manufacturer’s conditions prior to experiments. Cell lines were purchased from American Type Culture Collection (ATCC, Manassas, VA, USA) or Leibniz-Institute Deutsche Sammlung von Mikroorganismen und Zellkulturen GmbH (DSMZ, Braunschweig, Germany) and cultured without antibiotics unless stated. Leukemia cells were cultured in RPMI and supplemented with 10% fetal bovine serum (FBS, Hyclone, Logan, UT, USA). SUP-B15, and KOPN-8 lines were cultured in RPMI supplemented with 10% FBS (Hyclone), 1% GlutaMAX™, 1% Pen/Step, and 0.1% β-mercaptoethanol. BJ cells were cultured in EMEM media supplemented with 10% FBS (Hyclone). Breast cancer cells (MDA-MB-231 & SUM149) were cultured in DMEM and Ham’s F12 respectively, supplemented with 10% FBS, 1% GlutaMAX™, 1% Pen/Step, and 2 µM cortisol/1 µg/mL insulin for SUM149. Both cells were grown to 80% confluence densities as recommended by ATCC. PBMCs were supplemented with concanavalin-A (5 μg/mL) and IL-2 (50 U/ml). To test general cytotoxicity, the following cell numbers were used for 384 well plates: KOPN-8 (ACC 552, infant human B cell precursor acute lymphoblastic leukemia with MLL-MLLt1/ENL fusion, 1000 cells/well), SUP-B15 (ACC389, human B cell precursor acute lymphoblastic leukemia of pediatric second relapse carrying the ALL-variant (m-bcr) of BCR-ABL1 fusion gene (e1-a2), 1600 cells/well), NALM-06 (DSMZ ACC128, non-T/non-B ALL at relapse with P15INK4B and P16INK4A deletions, 1200 cells/well), UoC-B1 (pediatric BCP-ALL at second relapse with TCF3/E2A-HFL fusion, 1000 cells/well), BJ (CRL-2522, normal human foreskin fibroblast cells, 400 cells/well) and PBMCs (periphery blood monocyte cells from healthy donors, IBC#BDC046, 10,000 cells/well).
(§2) Cytotoxicity evaluation was performed using the CellTiter-Glo Luminescent Cell Viability Assay kit (G7570, Promega, Madison, WI, USA), according to the manufacturer’s instructions. Briefly, the cell concentrations used were experimentally determined to ensure logarithmic growth during the 72-h duration of the experiment, and avoid adverse effects on cell growth by DMSO exposure. 1 × 10^3–4.8 × 10^3 or 4 × 10^2–1.2 × 10^3 cells/well were seeded in 96 or 384-well white flat-bottomed plates (3610 or 8804BC, Corning, Corning, NY, USA) in 100 µL or 30 µL/well, respectively. The plates were incubated at 37 °C in 5% CO2 for 24 h before drugging. Test compounds (10 mM in DMSO) in nine 3-fold serial dilutions were dispensed via pintool (Biomek liquid handler, Beckman, Indianapolis, USA) to assay plates. The final concentration of DMSO was 0.3% (v/v) in each well. The positive controls included staurosporine (10 μM), and gambogic acid (10 μM). The plates were incubated for 72 h at 37 °C in 5% CO2, then quenched with CellTiter-Glo® (Promega, Madison, WI, USA, 50 µL/96 or 30 µL/384), centrifuged at 1000 rpm for 1 min and incubated at RT for 20 min. Luminescence was recorded with a plate reader (Envision, Perkin Elmer, Waltham, MA, USA). The mean luminescence of each experimental treatment group was normalized as a percentage of the mean intensity of untreated controls. EC50 values were calculated by Pipeline Pilot software (Accelrys, Enterprise Platform, San Diego, CA, USA).
A general note: In ATP-based viability assays light output follows the ATP content of the culture.

The subject of series [2] is KOPN-8. Put plainly: CTG viability assay (CellTiter-Glo, 72 h). It counts as cell-based. Particulars: Homo sapiens, mean ± SEM of triplicates. The protocol: as §1, §2
Series [3] relates to NALM-06. The experiment in a line: CTG viability assay (CellTiter-Glo, 72 h). It counts as cell-based. Particulars: Homo sapiens, mean ± SEM of triplicates. The protocol:
as §1, §2

The test system of series [4] is PBMC. The experiment in a line: CTG viability assay (CellTiter-Glo, 72 h). It counts as cell-based. The conditions noted are these: Homo sapiens, non-cancerous cells. The method, then: as §1, §2
The subject of series [5] is UoC-B1. Put plainly: CTG viability assay (CellTiter-Glo, 72 h). The conditions noted are these: Homo sapiens, mean ± SEM of triplicates. It counts as cell-based. The protocol: as §1, §2
The subject of series [6] is KOPN-8. Put plainly: Cell cycle analysis (PI DNA content, flow cytometry). Format: cell-based, human. The conditions noted are these: KOPN-8, 24 h; silvestrol 5 µM, 8 5 µM, 9 10 µM, 10 5 µM, 12 10 µM, 13 10 µM. The protocol:
(§3) The samples were probed with AnnexinV-FITC (Roche/Boehringer Mannheim, Indianapolis, IN, USA) according to the manufacturer’s instructions. KOPN-8 or SUB-P15 cells were plated (1.00 × 10^6 cells/plate) and incubated for 12 h and incubated at 37 °C. Then, cells were treated with compounds or controls for 24 h. Cells were stained with AnnexinV-FITC, PI and the staining profiles were determined with FACScan and Cell-Quest software. For cellular DNA content, the same cell treatment as above was performed. Then, cells were fixed in cold 75% ethanol, treated with RNase and then stained with PI solution (50 µg/mL). Cell cycle distribution was analyzed with the FACSCalibur analyzer (BD Biosciences, Franklin Lakes, NJ, USA) and Cell-Quest software. The percentage of DNA content at different phases of the cell cycle was analyzed with ModFit-software (version 5.0, Verity Software House, Topsham, ME, USA).
(A flow cytometer gives signals particle by particle.)

Series [7] concerns SUP-B15. The series is described as above. It counts as cell-based, human. Particulars: SUP-B15, 24 h; silvestrol 5 µM, 8 5 µM, 9 10 µM, 10 5 µM, 12 10 µM, 13 10 µM. The method, then:
as §3

The nature of series [8]: Aqueous solubility. Format: physicochemical. The conditions noted are these: physiological pH (7.40), compared to controls. An excerpt:
(§4) To gain further information regarding intracellular compound localization, studies were extended to include a marker for the ER (Figure 8). The staining pattern for the individual probes are shown in Figure 8A (ER), Figure 8B (Lysosome) and Figure 8D (probe 9a). […] Moreover, when all three channels were merged, white specks were observed, indicating co-localization of probe 9a with cellular structures that are stained by both ER and lysosomal marker dyes (Figure 8F). […] These mechanisms provide a plausible explanation for the lower potency of compound 9 compared to compound 10. Finally, in vitro ADME (absorption, distribution, metabolism, and elimination) profiles were evaluated for compounds 9 and 10 to compare with the obtained cellular data (Supplementary Material, Figure S10). The aqueous solubility properties at physiological pH (7.40) of compounds 9 and 10 were good compared to controls. […] The combined findings indicate that the steric-effects of the hydroxysuccinate appendage of compound 10 renders it less prone to degradation by lysosomal activity or other competing cellular removal mechanisms.

Series [9] in a line: Simulated gastric fluid (SGF) stability. Format: in vitro ADME. Particulars: read-out: SGF stability t1/2.
Source text: as §4

The nature of series [10]: caco-2 permeability assay. Format: in vitro ADME. Particulars: human, read-out: efflux ratio, B2A/A2B.
Source text: as §4

Where two headings read alike, the source gives them in different places. A value given as a limit tells only on which side of the number the result lay.

Consider `COC1=C[C@]23CCCN2CCc2cc4c(cc2[C@@H]3[C@@H]1O)OCO4` [Compound 9, cephalotaxine], for which the EC50 (in general, the concentration at which the effect is half-maximal) in series [1] (Homo sapiens, SUP-B15, mean ± SEM of triplicates) was 10.4 ± 0.75 µM; in series [2] it was 23.1 ± 5.2 µM; in series [3] it was 9.5 ± 2.7 µM; in series [4], greater than 83 µM; in series [5] it was 17.6 ± 5.8 µM. Besides, the cell cycle effect result in series [6] and in series [7] was “no significant cell arrest” each time. In addition, the aqueous solubility entry in [8] is recorded as “good”. In addition, the half-life in series [9] (simulated gi fluid) was greater than 33 h. Also, in series [10], the efflux ratio was roughly 2.
Consider `COC(=O)C[C@](O)(CCCC(C)(C)O)C(=O)O[C@@H]1C(OC)=C[C@]23CCCN2CCc2cc4c(cc2[C@H]13)OCO4` [Compound 10, homoharringtonine, reference compound], for which the EC50 in [1] (Homo sapiens, SUP-B15, 72 h, mean ± SEM of triplicates) amounted to 0.0452 µM; in series [1] (mean ± SEM of triplicates), 0.045 ± 0.005 µM; in series [2], 0.0799 ± 0.01 µM; in series [3], 0.0322 ± 0.01 µM; in series [4] it was 6.35 µM; in [5], 0.0129 ± 0.002 µM. The cell cycle effect result in series [6] and in series [7] was “almost identical to silvestrol” each time. The aqueous solubility result in series [8] is reported as “good”. Further, the half-life in [9] is greater than 33 h. The efflux ratio in [10] is less than 1.
